1 compound from patent US20240216440A1, “STRING-LIKE AGGREGATES OF RETINAL PIGMENT EPITHELIAL CELLS, DEVICE AND PRODUCTION METHOD FOR PRODUCING SAME, AND THERAPEUTIC AGENT COMPRISING SAID STRING-LIKE AGGREGATES” (RIKEN, priority 2021, published 2024) can be followed below.

Each structure is given as a SMILES string. “Also recorded” adds a separate entry of the source.

Holding throughout (format): cell-based, human
One assay has as its system hiPSC-RPEs (M8 line). The assay is described as follows: String-like aggregate formation under different Y-27632 concentrations, M8 line. The following applies: for appearance of string-like aggregates: day 2. As to the method:
After thawing, hiPSC-RPE cells were cultured for 2 weeks, the cells were collected, and seeded in the number described in each experiment into each groove of the PDMS-based culture device, using 15 μl RPE maintenance medium containing the optimal concentration of Y-27632 (concentrations indicated for each experiment). In the present inventors' preliminary experiment (FIG. 14A), higher concentrations of Y-27632 appeared to affect the texture of the string-like aggregates to become tighter. […] Next, the present inventors directly compared string-like aggregates made with either 2.5 μM or 10 μM of Y-27632 (FIGS. 13B-G). […] On the other hand, string-like aggregates formed with 10 μM Y-27632 appeared more dense (FIG. 13B).

Assay [1] concerns hiPSC-RPE cells (M8 line). As to the kind of experiment: Adhesion and expansion of plated string-like aggregates on uncoated 24-well plate, M8 line. To be noted: for adhesion to plate and expansion of string-like aggregates: uncoated wells. The procedure:
The string-like aggregates were released from the grooves of the device, and the string-like aggregates were seeded onto an uncoated 24-well plate (Corning Incorporated) containing the mix medium. After adhesion of the string-like aggregates (2 to 3 days later), the medium was replaced with RPE maintenance medium (containing bFGF and SB431542). The dishes under culture were photographed using the IncuCyte Zoom system (Essen BioScience). From the obtained image data, expanded cells were manually marked using Fiji, and the expanded area was measured. In the present inventors' preliminary experiment (FIG. 14A), higher concentrations of Y-27632 appeared to affect the texture of the string-like aggregates to become tighter. […] The string-like aggregates on day 2 (FIGS. 13D and E) and day 3 (FIGS. 13F and G) were then used to compare cell expansion after plating in uncoated wells between string-like aggregates formed with 2.5 and 10 μM Y-27632.

For assay [2], the system named is hiPSC-RPE cells (201B7modFucci line). The assay is described as follows: Adhesion/expansion assay of plated string-like aggregates, 201B7modFucci line. As to the method: The string-like aggregates were released from the grooves of the device, and the string-like aggregates were seeded onto an uncoated 24-well plate (Corning Incorporated) containing the mix medium. After adhesion of the string-like aggregates (2 to 3 days later), the medium was replaced with RPE maintenance medium (containing bFGF and SB431542). The dishes under culture were photographed using the IncuCyte Zoom system (Essen BioScience). From the obtained image data, expanded cells were manually marked using Fiji, and the expanded area was measured. The present inventors tested whether another hiPSC line could similarly form string-like aggregates. The present inventors used the 201B7modFucci line to induce RPE differentiation and compared it with hiPSC(M8)-RPE. hiPSC(201B7modFucci)-RPE also formed string-like aggregates like hiPSC(M8)-RPE, but the 201B7modFucci line required a Y-27632 concentration of 5 μM or higher to stably form string-like aggregates (FIG. 15-1A). The optimal Y-27632 concentration for adhesion/expansion assays was 5 μM for hiPSC(201B7modFucci)-string-like aggregates, and the optimal Y-27632 concentration for the desired adhesion/expansion effect varied depending on the cell line used and required optimization (FIGS. 14D and E). […]

On to `C[C@@H](N)[C@H]1CC[C@H](C(=O)Nc2ccncc2)CC1` [Y-27632], for which, in the assay with hiPSC-RPEs (M8 line) (M8 line, 0 and 1 μM Y-27632), the string-like aggregate formation entry is on record as “not successfully formed”. In addition, the “Y-27632 concentration at which hiPSC-RPEs were able to form string-like aggregate shape” value in the assay with hiPSC-RPEs (M8 line) (M8 line, tested 0, 1, 2, 2.5 and 10 μM) is given as “above 2 μM”. Also, the “appearance of string-like aggregates” value in the assay on hiPSC-RPEs (M8 line) (formed with 2.5 μM Y-27632) was “flat and loose”; with hiPSC-RPEs (M8 line) (formed with 10 μM Y-27632) it was “more dense”. In addition, the “adhesiveness of string-like aggregates to the plate” value in assay [1] (aggregates added with 2-2.5 μM Y-27632, M8 line, day 2 aggregates, 24-well plate) is given as “highest adhesiveness to the plate”; in assay [2] (aggregates added with 2-2.5 μM Y-27632, 201B7modFucci line, day 2 aggregates, 24-well plate) it was “consistently adherent to the plate”. Also, the “adhesion to plate and expansion of string-like aggregates” value in assay [1] (aggregates formed with 2.5 μM Y-27632, compared with 10 μM, day 2 and day 3 aggregates) is “tended to attach to the plate and begin to expand early after placing; also recorded: higher adhesiveness to the plate, covered more area, and began to expand faster on the plate”; in assay [1] (aggregates formed with 10 μM Y-27632), “expansion was delayed; also recorded: tended to be coil-like and moved around for several days before settling and starting to expand”. Further, the “optimal Y-27632 concentration for adhesion/expansion assays” value in assay [2] (hiPSC(201B7modFucci)-string-like aggregates) stood at 5 µM.
